# Experiments:
# [1] = tested on: nitrification in the soil; test: Soil column study at low rates (Study 3-14): nitrate-N; details: day 60
# Method: To determine the effect of treating the soil with 4-Ethynylanisole at low rates, e.g. at 1 kg/ha and 2 kg/ha, soil column studies were conducted. The experiment was conducted in cylindrical PVC containers (Diameter=186 mm, Height=240 mm). The containers were filled with soil to half of the container's height (120 mm), leaving 120 mm headspace. The soil was Templeton sandy loam collected from Lincoln University Research Dairy Farm. It was screened using a 5 mm sieve and air-dried to the required moisture level and packed to bulk density of 1 g/cm3.
# The experiment was conducted under controlled conditions. The temperature of the soil columns were maintained at around 12° C. by using a water bath to control the temperature.
# The treatments included Control (Water), Control (animal urine), Control (urine+DMSO), Control (Urine+DCD at 10 kg/ha), Urine+4-Ethynylanisole (at 1 kg/ha) in DMSO, and Urine+4-Ethynylanisole (at 2 kg/ha) in DMSO. Synthetic cow urine was applied at 700 kg N/ha (comprising about 87% urea-N and 13% glycine-N), and 4-Ethynylanisole was applied at 1 or 2 kg/ha equivalent. The treatments were mixed with the soil. Soil moisture was adjusted to 100% field capacity (FC) and maintained between 80 and 100% FC over the duration of the experiment. Soil sampling was conducted on Days 1, 7, 14, 30, and 60. The soil samples were analysed for mineral N.
# [2] = tested on: nitrification in the soil; test: Laboratory soil incubation, Templeton sandy loam with synthetic cow urine, nitrate-N
# Method: A Templeton sandy loam was used in this experiment. 500 g of soil (dry weight basis) was packed into a pottle. 50 mL of synthetic cow urine with an N concentration of 7 g N/L (comprising about 87% urea-N and 13% glycine-N) was applied to the soil (equivalent to 700 kg N/ha on weight basis, assuming bulk density of 1 g/cm^3 in the top 10 cm of soil). The 700 kg N/ha application was used to simulate the urine-N application rate under a typical dairy cow urine patch in a grazed pasture.
# Control treatments also added to soil were: • urine alone (50 mL); • DMSO (equivalent to 0.9 mL/500 g soil)+urine (50 mL) to determine the effect of DMSO on nitrification rate; • water alone (50 mL) (simulating areas of the soil where no urine was deposited).
# Pottles were covered with lids with breathing holes to allow for gas exchange during incubation. Pottles were incubated at 12° C. Soil moisture content was maintained at field capacity by adjusting on weight basis twice a week.
# Soil samples were collected and were then thoroughly mixed and subsamples were extracted in a potassium chloride solution and analysed for mineral-N. Soil moisture content was also determined. Samples were taken at 30 days after the start of incubation. […]
# Mesorhizobium loti R7A = test: Antimicrobial susceptibility testing (MIC plate); assay type: cell-based; details: at concentrations used in soil to inhibit nitrification
# Method: (§1) To determine if 4-Ethynylanisole specifically targets the ammonium oxidizing bacterium N. europaea we examined the antimicrobial properties of 4-Ethynylanisole against selected bacterial species. Bacteria were routinely grown in Lysogeny broth (LB) (E. coli and B. subtilis), LB-Tween (M. smegmatis), or Rhizobium defined media (G RDM) (M. loti […]). E. coli, B. subtilis, and M. smegmatis were grown overnight (18 hr) at 37° C. with shaking (200 rpm), whereas M. loti […] was grown for 48 hr statically at 28° C. 96-well microtiter plates used for the antimicrobial susceptibility testing were set up as follows; 200 μl of media (or as appropriate) was added to column […]) and 100 μl of media was added to the remaining wells of a polystyrene 96 well plate. 4-Ethynylanisole was added to column 1 at a concentration of 512 μM (or as required) and serially diluted 2-fold (100 μl transfer) into the neighbouring wells, making sure to discard 100 μl from the last well. Thus, resulting in a serial dilution of each compound. […] Plates were incubated at either 37° C., or 28° C. (with shaking as required) for 18-48 hr before determining the MIC.
# Escherichia coli = test: Antimicrobial susceptibility testing (MIC plate); assay type: cell-based; details: at concentrations used in soil to inhibit nitrification
# Method: as §1
# Bacillus subtilis = test: Antimicrobial susceptibility testing (MIC plate); assay type: cell-based; details: at concentrations used in soil to inhibit nitrification
# Method: as §1
# Mycobacterium smegmatis = test: Antimicrobial susceptibility testing (MIC plate); assay type: cell-based; details: at concentrations used in soil to inhibit nitrification
# Method: as §1
# N. europaea cells = test: Oxygen consumption rate of N. europaea whole cells (Oroboros oxygraph); assay type: cell-based, Nitrosomonas europaea; details: 25° C.
# Method: To begin to understand the mechanism of action of 4-Ethynylanisole the oxygen consumption rate was measured utilising an Oroborus oxygraphy-2k (Oroboros Instruments). Prior to the experiment, N. europaea cells were grown in ATCC 2265 medium for four days. After which time whole cells of N. europaea were washed extensively as previously described and re-suspended in ATCC 2265 wash buffer (no ammonium) to an OD600 of 0.25. Prior to each experiment being initiated by the addition of a metabolizable energy source (ammonium or hydroxyl amine), the oxygen concentration in the assay suspension (2 ml of cells at OD600 of 0.25) was equilibrated for 2-3 min with air until a stable signal was obtained. Under normal experimental conditions this typically yielded an oxygen concentration of approximately 220 μM. After the oxygen concentration had stabilised in the Oroborus oxygraphy-2k reaction cell, rubber stoppers were subsequently inserted to enclose the system. To initiate respiration, ammonium sulphate (12.5 mM) or hydroxyl amine (6.25 mM) were injected directly into washed cell suspension of N. europaea. […] All measurements were made at 25° C. with stirring at 750 rpm and a data recording interval of 1 s^−1.
smiles,measurement,setting,value
"C#Cc1ccc(OC)cc1 [4-Ethynylanisole, 1-ethynyl-4-methoxybenzene]",inhibiting nitrate production compared with DCD,[1]; 1 or 2 kg/ha vs DCD at 10 kg/ha,much more potent than DCD
same,soil nitrate-N concentration compared with urine control,[1]; 1 or 2 kg/ha,significantly lower nitrate-N concentrations
same,nitrate-N concentration in the soil compared with urine alone,"[2]; Study 1-14, 2 to 20 kg/ha, day 30",significantly lower nitrate-N concentrations
same,soil nitrate-N concentration changes with time,"[2]; Study 1-14, range of rates 2, 5, 10, 20 kg/ha, days 1, 14, 30",significant inhibition of nitrate production
same,inhibition of bacterial growth,Mesorhizobium loti R7A,did not inhibit
same,inhibition of bacterial growth,Escherichia coli,did not inhibit
same,inhibition of bacterial growth,Bacillus subtilis,did not inhibit
same,inhibition of bacterial growth,Mycobacterium smegmatis,did not inhibit
same,ammonium-driven oxygen consumption,N. europaea cells; ammonium sulphate 12.5 mM,reduced to zero
same,hydroxylamine (H3NO)-driven oxygen consumption,N. europaea cells; hydroxyl amine 6.25 mM,not affected

# Source: patent US11578013B2, “Nitrification inhibitors” (Lincoln University, priority 2020, dated 2023)
